According to patent US20170105971A1, “METHODS AND COMPOUNDS FOR THE TREATMENT OF BONE LOSS AND/OR PAIN” (priority 2015, published 2017):
pIC50: −log10 of the molar value. Entries after “also recorded” stand apart in the source; their conditions may differ. Read-outs that look alike come from different tables or passages of the source.

Key:
mice = test: ACPA-induced pain (mechanical hypersensitivity) in mice, von Frey filaments; type: in vivo, mouse; details: 5 mg/kg s.c. once daily; C03 2 mg i.v.; p<0.01
Method: Starting day 1, the PAD inhibitor 2-2-Chloroacetamide (C0267, Sigma Aldrich) was injected subcutaneously s.c. (in 100 μl saline with 5% DMSO) once daily (5 mg/kg/day) for 10 days.
Withdrawal thresholds of the hind paws were assessed using von Frey filaments as previously described (Bas, D. B. et al., 2012). In brief, the mice were habituated in individual compartments on top of a wire-mesh surface (Ugo Basile) prior to experiment. On test days, mice were given time to acclimatize and then optiHair filaments (Marstock OptiHair) of increasing buckling force (0.5, 1, 2, 4, 8, 16, and 32 mN) were applied to the plantar surface of the paw until the filament bent slightly. A brisk withdrawal of the paw within 2-3 seconds was noted as a positive response. A 50% withdrawal threshold was calculated using the Dixon up-down method (Chaplan, S. R., et al., 1994) and results from both hind paws were averaged and presented as % of baseline values.

iDC-derived OCs = test: iDC-derived osteoclast culture, TRAP staining (OC numbers); type: cell-based, human; details: RANKL and M-CSF
Description: (§1) The medium was exchanged every three days.
(§2) IL-8 was neutralized in the cell supernatants using an anti-IL-8/CXCL8 neutralizing antibody (clone MAB208, R&D systems, UK). PAD activity was inhibited using a pan-PAD inhibitor Cl-amidine (Cayman chemical, Michigan, USA), either at the initiation of the OC cultures or three days before the end of culturing.

[1] = test system: RA-derived synovial fibroblasts; test: synovial fibroblast in vitro scratch assay (migration index); type: cell-based, human; details: PADi at similar doses as in OC cultures
Method: (§3) Synovial fibroblasts were isolated from the synovial tissue of RA patients by enzymatic digestion. The cells were growth at 37° C. in 5% CO2 in Dulbecco's modified Eagle medium (DMEM, Sigma-Aldrich, Stockholm, Sweden) with 10% (v/v) heat-inactivated fatal cow serum (FCS, Sigma-Aldrich, Stockholm, Sweden), 100 U/ml penicillin, 100 μg/ml streptomycin and L-glutamine. The cells at passages 4-8 were used throughout this study. Twenty four-well plates were pre-coated with collagen (50 μg/ml), followed by 1 hour of blocking with 3% BSA (Sigma). A sufficient number of SFs were grown to 80-90% confluence and serum starved for 1-2 hours. The scratches were then made using a P-200 pipette tip. The floating cells were removed by washing with PBS. The cells were incubated with or without PAD inhibitors at the indicated concentration for 48 hours. Light microscope images were taken immediately at 0 and 5 hours after scratching. The images were analyzed using NIH ImageJ. The closure areas were normalized to medium control, and these values represent the migration index.

[2] = test system: collagen-induced arthritis; details: Willis et al., cited from earlier work
Mφ-derived OCs = test: Mφ-derived osteoclast culture, TRAP staining (OC numbers); type: cell-based, human; details: for unstimulated OC differentiation (OC numbers): RANKL and M-CSF, early PAD inhibition (at initiation of OC culture)
[3] = test system: RA-derived synovial fibroblasts; test: LDH cytotoxicity assay in synovial fibroblast supernatants; type: cell-based, human; details: PADi at similar doses as in OC cultures
Method: as §3
(§4) The LDH levels in the cell-free culture supernatants were measured using an LDH cytotoxicity assay kit (Roche Diagnostics Scandinavia AB, Bromma, Sweden) according to the manufacturer's instructions.

[4] = test system: antibody-mediated arthritis; details: Willis et al.; cited from earlier work
OCs = test: LDH cytotoxicity assay in OC culture supernatants; type: cell-based, human; details: OC cultures with PAD inhibitor
Method: as §4

ACPA-stimulated OCs [5] = test: ACPA-stimulated OC calcium phosphate resorption with inhibitor; type: cell-based, human; details: PADi added from the beginning of the OC cultures
Description: as §1, §2

[6] = test system: citrullinated targets in mature OCs; test: immunohistochemistry of citrullinated targets in mature OCs with PAD inhibitor; type: cell-based, human; details: inhibitor added from the beginning of the cultures; mB02 staining
Method: Murinized monoclonal IgG2a ACPAs (D10, B02, C07) and control antibody (E02) were used to investigate the presence of citrullinated proteins during OC maturation. A rabbit polyclonal anti-PAD2 (Cosmo Bio, Tokyo, Japan) and a monoclonal mouse anti-PADI4 (Abcam, Cambridge, UK) antibody were used to investigate the cellular expression of PAD enzymes during OC maturation. Mφ- and iDC-derived OCs were cultured in 8-well glass chamber slides.
Cells at different stages of differentiation were fixed with 2% (vol/vol) formaldehyde (Sigma-Aldrich, Stockholm, Sweden) at 4° C. and stored at −70° C. until use. Following blocking of endogenous peroxidase and avidin-biotin activity, the slides were incubated with primary monoclonal antibodies. HRP conjugated anti-mouse antibody was used as a secondary antibody and developed with 3,3-diaminobenzidene (DAB) for 7 minutes. The slides were counterstained with Mayer's hematoxylin, dehydrated and permanently mounted and viewed using a light microscope (Reichert Polyvar 2 type 302001, Leica).

ACPA-stimulated OCs [7] = test: ACPA-stimulated osteoclastogenesis with inhibitor, TRAP staining; type: cell-based, human
Description: as §1, §2

[8] = rat; cited from earlier work
mouse neutrophils = details: cited from earlier work
[9] = mouse; cited from earlier work
PAD4 [10] = target: T1, PAD4 (Homo sapiens, UniProt Q9UM07); design: endogenous in cells; host or cells: human neutrophils; details: cited from earlier work
Target sequence in this assay (Q9UM07 whole entry): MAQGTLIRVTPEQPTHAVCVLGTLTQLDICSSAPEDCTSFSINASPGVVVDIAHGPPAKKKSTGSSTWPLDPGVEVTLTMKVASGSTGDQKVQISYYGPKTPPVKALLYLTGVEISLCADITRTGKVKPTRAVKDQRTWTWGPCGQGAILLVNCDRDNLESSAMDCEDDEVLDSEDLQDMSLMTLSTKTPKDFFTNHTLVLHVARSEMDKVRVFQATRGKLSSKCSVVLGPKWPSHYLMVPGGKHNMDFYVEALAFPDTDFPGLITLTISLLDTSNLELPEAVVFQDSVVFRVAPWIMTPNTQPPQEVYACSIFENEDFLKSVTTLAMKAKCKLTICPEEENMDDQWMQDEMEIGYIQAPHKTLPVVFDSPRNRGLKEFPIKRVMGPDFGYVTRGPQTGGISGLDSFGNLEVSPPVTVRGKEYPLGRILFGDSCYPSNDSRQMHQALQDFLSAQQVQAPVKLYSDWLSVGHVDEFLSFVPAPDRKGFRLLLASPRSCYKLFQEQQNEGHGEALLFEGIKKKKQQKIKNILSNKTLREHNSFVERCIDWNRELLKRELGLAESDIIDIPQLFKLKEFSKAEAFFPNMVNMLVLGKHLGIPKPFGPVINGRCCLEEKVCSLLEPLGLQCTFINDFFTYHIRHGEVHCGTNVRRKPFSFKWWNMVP

human neutrophils = details: cited from earlier work
PAD4 [11] = target: T1, PAD4; details: cited from earlier work
Target sequence in this assay (Q9UM07 whole entry, species assumed): as the sequence (Q9UM07 whole entry) above

Balb/c mice = test: ACPA-induced systemic bone loss in mice, micro-CT of tibia; type: in vivo, mouse; details: s.c. twice daily 30 mg/kg/day for 6 days from day 6
Method: Animal experiments were conducted using adult male Balb/c (Harlan) 15 weeks of age. Mice were housed in standard cages (3-5 per cage) in a climate controlled environment maintaining a 12-hour light/dark cycle with access to food and water ad libitum. All experiments were approved by the local ethics committee for animal experiments in Sweden. […] Starting day 6, the CXCR2 antagonist reparixin (L-lysin salt, HY-15252, MedChem Express) was injected subcutaneously (s.c. in 100 μl saline) twice daily (30 mg/kg/day) for 6 days. At the end of the study, mice were anesthetized using 4% isoflurane, decapitated and left hind leg removed and post-fixed in 4% PFA until further analysis.
Bone structure was analyzed using a SkyScan 1176 micro-CT (Bruker) with a voxel size of 9 μm. The scanning was conducted at 50 kV/480 ρA with a 0.2 mm aluminum filter. The exposure time was 900 ms. The x-ray projections were obtained at 0.4° intervals with a scanning angular rotation of 180°. The projection images were reconstructed into 3-dimensional images using NRecon software (version 1.6.9.8; Bruker) and analyzed using CTVox software (version 2.7.0; Bruker). Trabecular bone in tibia located 644 μm from the proximal growth plate and extending 100.5 μm was analysed regarding BMD and 3D analysis and a volume of cortical bone in tibia mesasuring 617 μm in length, located in the distal tibia was measured for TMD, using CTAnalyzer software (version 1.14.4.1; Bruker). The 3D structures of each joint were blindly assessed by two observers (T.J. and M.M.).

PAD4 [12] = target: T1, PAD4; details: cited from earlier work; remark: listed apart in the source
Target sequence in this assay (Q9UM07 whole entry, species assumed): as the sequence (Q9UM07 whole entry) above

[13] = early PAD inhibition, doses as low as 0.2 μM

With `NC(=O)CCl` [2-Chloroacetamide (2CA), 2-Chloroacetamide] the “pain (mechanical hypersensitivity) induced by ACPA antibody C03” value (mice) was “prevents”.

In the case of `N=C(CCl)NCCC[C@H](NC(=O)c1ccccc1)C(N)=O` [Cl-amidine, N-α-benzoyl-N5-(2-chloro-1-iminoethyl)-L-Orn amide], the “OC differentiation from iDC” value (iDC-derived OCs) is listed as “dose-dependent inhibition”, the “fibroblast migration (migration index)” value [1] is listed as “no changes; also recorded: does not affect” and the “disease activity in collagen-induced arthritis” value [2] is listed as “decreases disease activity”. For the same compound, the “bone damage in collagen-induced arthritis” value ([2]; in the context of lower synovial inflammation) was “lower bone damage”, the “unstimulated OC differentiation (OC numbers)” value (Mφ-derived OCs) was “dose-dependent inhibition; also recorded: dose-dependently inhibited” and the “unstimulated OC differentiation (OC numbers)” value (Mφ-derived OCs; listed as PADi) was “affects both unstimulated and ACPA-mediate osteoclastogenesis”. The “unstimulated differentiation of OCs” value (Mφ-derived OCs; [13]) was “no longer able to affect”, the “fibroblast survival (LDH assay)” value [3] was “no changes; also recorded: does not affect” and the “effect on antibody-mediated arthritis” value [4] was “no effect”. The “cell death, LDH release in the supernatants” value (OCs) was “without inducing cell death; also recorded: without any cytotoxic effect”, the “ACPA-induced calcium phosphate resorption” value (ACPA-stimulated OCs [5]) was “prevented” and the “staining intensity of citrullinated targets in OCs after PAD inhibitor treatment” value [6] was “markedly diminished”. For the same compound, the “ACPA-mediated osteoclastogenesis (OC activation)” value (ACPA-stimulated OCs [7]; PADi added from the beginning of the cultures) was “not able to promote OCs activation; also recorded: affects both unstimulated and ACPA-mediate osteoclastogenesis; also recorded: prevented”, the ACPA-mediated osteoclastogenesis (ACPA-stimulated OCs [7]; [13]) was “still able to inhibit; also recorded: inhibits” and the ACPA-mediated osteoclastogenesis (ACPA-stimulated OCs [7]; late PAD inhibition (three days before ending the OC cultures), doses as high as 20 μM) was “affects only ACPA-mediated osteoclastogenesis”.

In the case of `COc1cc(C(=O)N2CC[C@@H](O)[C@@H](N)C2)cc2nc(-c3cc4ccccc4n3CC3CC3)n(C)c12` [GSK484, [(3S,4R)-3-amino-4-hydroxy-1-piperidinyl][2-[1-(cyclopropylmethyl)-1H-indol-2-yl]-7-methoxy-1-methyl-1H-benzimidazol-5-yl]-methanone], the pharmacokinetic profile [8] is listed as “favorable”, the “formation of neutrophil extracellular traps” value (from here on “formation”) (mouse neutrophils) is listed as “inhibits” and the pharmacokinetic profile [9] is listed as “favorable”. The “citrullination of PAD4 target proteins in human neutrophils” value (PAD4 [10]) was “blocks” and the “formation” value (human neutrophils) was “inhibits”.

For `Cn1c(-c2nc3cc(C(=O)N4CCCC(N)C4)ccc3n2C)cc2ccccc21` (stereo not drawn) [GSK-121, (3-amino-1-piperidinyl)[1-methyl-2-(1-methyl-1H-indol-2-yl)-1H-benzimidazol-5-yl]-methanone, 2,2,2-trifluoroacetate], the pIC50 (PAD4 [11]; functional assay, read-out: IC50, inhibition of citrullination of PAD4 target proteins) is listed as 5.49.

In the case of `CC(C)Cc1ccc([C@@H](C)C(=O)NS(C)(=O)=O)cc1` [reparixin], the “ACPA-induced change of bone volume fraction” value (Balb/c mice) was “reversed”, the “ACPA-induced change of trabecular bone mineral density (BMD)” value (Balb/c mice) was “reversed” and the “ACPA-induced change of trabecular number” value (Balb/c mice) was “reversed”.

For “(3-amino-1-piperidinyl)[1-methyl-2-(1-methyl-1H-indol-2-yl)-1H-benzimidazol-5-yl]-methanone, 2,2,2-trifluoroacetate [GSK199]”, the “inhibition of citrullination of PAD4 target proteins” value (PAD4 [11]) is listed as “can inhibit”, the “formation” value (mouse neutrophils) is listed as “diminish” and the pIC50 (PAD4 [12]; binds to the low-calcium form of the enzyme) is listed as 6.70. The “selectivity for PAD4 over PAD1-3” value (PAD4 [12]) was “selective for PAD4 over PAD1-3”.

With adalimumab the “effect of ACPAs on osteoclastogenesis” value (ACPA-stimulated OCs [7]; antibody concentrations as high as 10 μg/ml) was “No such effects”.
